# Test results from patent publication EP1770089A1, “Pyranodibenzofuran derivatives with antifungal and antibacterial activity” (priority 2005, dated 2007).
# Read-outs that look alike come from different tables or passages of the source.
# Experiments:
# M. microti (MYC-942272) = test: Growth inhibition in liquid culture, CFU plating (MIC99); type: cell-based
# VERO cells = test: Cytotoxicity, MTT test; type: cell-based; settings: for IC50: cytotoxicity on VERO cells, MTT, 24 hours
# Experimental: (§1) The cytotoxicity of compounds 9 and 16 was further assessed in various mammalian cell lines using the MTT test. RAW and A549 cell lines were maintained in RPMI 1640 medium without L-GLU supplemented with 10% Fetal calf serum (FCS), penicillin-streptomycin solution 1 % at 37 °C in air with 5 % CO2. VERO cell lines were maintained in D-MEM medium without L-GLU supplemented with 10% Fetal calf Serum (FCS), penicillin-streptomycin solution 1 % at 37 °C in air with 5 % CO2. Proliferating cells were seeded for 96-well microtitration plates at a density of 5. 10^5 cells/mL which were further incubated for 24 h at 37°C under 5 % CO2 in air before each assay. Various concentrations of solutions of 9 and 16 (10 µl/well) in 1.25 % dimethylsulfoxide (DMSO)) were added and then incubated for 24 hours under the above conditions. At the end of incubation, 20 µl of dimethylthiazolyl diphenyl tetrazolium bromide solution (MTT) (7.5 mg/ml) was then added into each well and further incubated for 4 h at 37°C to allow the formation of formazan. The crystals of formazan were then dissolved with 100 µl of an acidic solution (Sodium dodecyl sulfate (SDS) 10 %, HCl 10 mM). The optical density of each well was measured at 595 nm using a Multiwell plate reader. The values given are the average means of six replicates. The 50 % inhibition concentration was determined by curve fitting.
# Macrophages = test: Cytotoxicity, MTT test; type: cell-based; settings: cytotoxicity on macrophages
# Experimental: as §1
# [1] = tested on: murine bone marrow macrophages infected by M. tuberculosis H37Rv; test: Antibacterial activity on infected bone marrow macrophages (CFU count of lysates); type: cell-based
# Candida albicans = test: In vitro activity (MIC99) against Candida albicans; type: cell-based
# Experimental: The antifungal activity of compounds 5, 9, and 11-22 against Candida albicans was analyzed by the measure of the MIC99 concentration (see Table 1). Table 1. In Vitro Activity against Candida albicans of pyranodibenzofuran derivatives
# [2] = tested on: Mycobacterium smegmatis mc^2155; test: Mycobacterial growth inhibition in liquid culture (MIC99); type: cell-based; settings: Mycolicibacterium smegmatis, MC2155|MC^2155, 48 h; mc2155; two-day's growth at 37°C; 99% decrease vs DMSO control; read-out: MIC99 on M. smegmatis
# [3] = tested on: Mycobacterium tuberculosis H37Rv; parameters: species or system C57BL/6 and BalbC mice; settings: mouse, in vivo
# [4] = tested on: Mycobacterium tuberculosis H37Rv; test: Mycobacterial growth inhibition in liquid culture, CFU plating (MIC99); type: cell-based; settings: Mycobacterium tuberculosis, H37RV; for MIC99: 504 h
# Streptomyces Subspec = test: Growth inhibition in liquid medium, CFU plating (MIC99); type: cell-based; settings: Actinomycetes
# Experimental: (§2) To further assess its specificity, effect of compounds 9 and 16 was also assessed in vitro growth in liquid medium on a whole range of bacteria (Corynebacterium jeikeium, Escherichia coli, Enterococcus faecalis, Klebsiella oxytoca, Nocardia asteroides, Staphylococcus aureus, Pseudomonas aeruginosa and Streptomyces). Compounds were solubilized in dimethylsulfoxide (DMSO) and 100 µl of the appropriate dilution were added to a 5 ml culture with predetermined bacterium inoculum. Quantification of the bacteria was carried out by plating on appropriate agar serial 5-fold dilutions in medium, and colony forming units (CFUs) were ascertained after 24 to 48 hours according to the strains. Table 5. Antibacterial activity of compounds 9 and 16 on other bacteria
# Enterococcus faecalis = test: as above; type: cell-based; settings: Gram-positive
# Experimental: as §2
# Corynebacterium jeikeium = test: as above; type: cell-based; settings: Actinomycetes
# Experimental: as §2
# Escherichia coli = test: as above; type: cell-based; settings: Gram-negative
# Experimental: as §2
# Klebsiella oxytoca = test: as above; type: cell-based; settings: Gram-negative
# Experimental: as §2
# Nocardia asteroides = test: as above; type: cell-based; settings: Actinomycetes
# Experimental: as §2
# Staphylococcus aureus = test: as above; type: cell-based; settings: Gram-positive
# Experimental: as §2
# Pseudomonas aeruginosa = test: as above; type: cell-based; settings: Gram-negative
# Experimental: as §2
# Pneumococcus pneumoniae = test: as above; type: cell-based; settings: Gram-positive
# L1210 cells = test: Cytotoxicity, MTA (Microculture Tetrazolium Assay) test; type: cell-based; settings: Mus musculus, cytotoxicity on L1210 cells, read-out: IC50
# Experimental: The cytotoxicity of compounds 5, 9, and 10-21 was determined in L1210 cells using the MTA (Microculture Tetrazolium Assay) test.
# M. tuberculosis H37Ra = test: Growth inhibition in liquid culture, CFU plating (MIC99); type: cell-based; settings: Mycobacterium tuberculosis
# M. bovis BCG (Pasteur) = test: microbe, parasite or virus in culture; type: cell-based; settings: Mycobacterium tuberculosis variant bovis BCG
smiles,measurement,setting,value
"CC1(C)C=Cc2c(ccc3oc4ccccc4c23)O1 [Compound 9, 3,3-dimethyl-3H-benzofuro[3,2-f][1]benzopyran]",MIC99,M. microti (MYC-942272),1 µg/mL
same,IC50,"VERO cells; Chlorocebus sabaeus, Vero, 24 h, read-out: IC50",> 50 µg/mL
same,IC50,VERO cells,80 µg/mL
same,Selectivity Index,"VERO cells; summary statement, cell type not specified",above 10
same,IC50,"Macrophages; Macrophage, 24 h, read-out: IC50",> 50 µg/mL
same,IC50,Macrophages; 24 hours,80 µg/mL
same,CFU,"[1]; 5 µg/mL, 24 hours treatment, untreated control 4000 ± 1414",3000 ± 816
same,CFU,"[1]; 5 µg/mL, 48 hours treatment, untreated control 17500 ± 12583",2875 ± 250
same,reduction of bacterial load,[1]; 10µg/mL at 24 hours,60%
same,CFU,"[1]; 10 µg/mL, 24 hours treatment, untreated control 4000 ± 1414",1500 ± 577
same,CFU,"[1]; 10 µg/mL, 48 hours treatment, untreated control 17500 ± 12583",10000 ± 7360
same,CFU,"[1]; 50 µg/mL, 24 hours treatment, untreated control 4000 ± 1414",1750 ± 1500
same,CFU,"[1]; 50 µg/mL, 48 hours treatment, untreated control 17500 ± 12583",3800 ± 497
same,MIC99,"Candida albicans; Candida albicans, > 99 % inhibition of growth, read-out: MIC99 C. albicans",> 600 µg/mL
same,MIC99,"Candida albicans; Fungus, Candida albicans (table of other bacteria), read-out: MIC99",> 600 µg/mL
same,MIC99,[2],5 µg/mL
same,"bacteria detected at 30 days post infection (bacterial load, CFU)",[3],no bacteria was detected in 2 out of 3 mice
same,MIC99,"[4]; H37Rv, three weeks growth in 7H9, CFU on 7H11, NI = no inhibition at 1 mg/mL, read-out: MIC99 on M. tuberculosis",5 µg/mL
same,MIC99,"[4]; M. tuberculosis H37Rv, three week growth in 7H9/OADC",< 5 µg/mL
same,MIC,"[4]; summary statement, read-out: MIC measured on M. tuberculosis",< 6.25 µg/mL
same,MIC99,Streptomyces Subspec,> 500 µg/mL
same,MIC99,Enterococcus faecalis,> 500 µg/mL
same,MIC99,Corynebacterium jeikeium,> 150 µg/mL
same,MIC99,Escherichia coli,> 600 µg/mL
same,MIC99,Klebsiella oxytoca,> 600 µg/mL
same,MIC99,Nocardia asteroides,12.8 µg/mL
same,MIC99,Staphylococcus aureus,> 100 µg/mL
same,MIC99,Pseudomonas aeruginosa,> 500 µg/mL
same,MIC99,Pneumococcus pneumoniae,> 500 µg/mL
same,IC50,L1210 cells,> 14 µg/mL
same,MIC99,M. tuberculosis H37Ra,10 µg/mL
same,MIC99,M. bovis BCG (Pasteur),10 µg/mL
